# Measurements from PMC3605731 (Current pharmaceutical design, 2012).
# Read-outs that look alike come from different tables or passages of the source.
# What was measured:
# HIV-1 in HeLa cells = experiment: Virus inhibition assay; assay type: cell-based; conditions: 48 hours
# HIV-1 in GHOST cells = experiment: Virus inhibition assay; assay type: cell-based; conditions: 48 hours
# HIV-1 RT L100I [1] = conditions: relative to nevirapine; cited from earlier work
# HIV-1 RT Y181C [2] = conditions: relative to nevirapine; cited from earlier work
# HIV-1 RT K103N [3] = conditions: FEP/MC, relative to efavirenz; cited from earlier work
# HIV-1 RT K103N [4] = conditions: relative to efavirenz; cited from earlier work
# HIV-1 RT L100I [5] = conditions: FEP/MC, relative to nevirapine; cited from earlier work
# HIV-1 RT Y181C [6] = conditions: FEP/MC, relative to nevirapine; cited from earlier work
# HIV-1 RT Y188L [7] = conditions: relative to efavirenz; cited from earlier work
# HIV-1 RT Y188L [8] = conditions: FEP/MC, relative to efavirenz; cited from earlier work
# [9] = system: HIV-1 infected human MT-2 cells; conditions: infected MT-2 human T-cell assay; cited from earlier work
# HIV-1 protease [10] = conditions: cited from earlier work
# HIV-1 protease [11] = conditions: cited from earlier work; remark: listed apart in the source
molecule,measurement,setting,value
"2,6-dichlorobenzamido-1H-indole [Compound 5]",viability,GHOST cells; 10 μM,81%
same,viability,GHOST cells; 50 μM,46%
same,HIV-1 inhibition (reduction in viral infectivity),HIV-1 in HeLa cells; 0.2 μM,no appreciable inhibition
same,HIV-1 inhibition,HIV-1 in HeLa cells; 10 μM,30%
same,HIV-1 inhibition (reduction in viral infectivity),HIV-1 in GHOST cells; 0.2 μM,no appreciable inhibition
same,HIV-1 inhibition,HIV-1 in GHOST cells; 10 μM,30%
Cc1cc(C#N)cc(C)c1Oc1nc(Nc2ccc(C#N)cc2)nc(N)c1Br [etravirine],"ΔΔG (experimental), L100I",HIV-1 RT L100I [1],-2.36 ± 0.42 kcal/mol
same,"ΔΔG (experimental), Y181C",HIV-1 RT Y181C [2],-1.36 ± 0.28 kcal/mol
same,"ΔΔG (computed), K103N",HIV-1 RT K103N [3],-2.4 kcal/mol
same,"ΔΔG (experimental), K103N",HIV-1 RT K103N [4],-2.00 ± 0.40 kcal/mol
same,"ΔΔG (predicted), L100I",HIV-1 RT L100I [5],-0.9 kcal/mol
same,"ΔΔG (predicted), Y181C",HIV-1 RT Y181C [6],-2.6 kcal/mol
same,"ΔΔG (experimental), Y188L",HIV-1 RT Y188L [7],-2.07 ± 0.23 kcal/mol
same,"ΔΔG (computed), Y188L",HIV-1 RT Y188L [8],-2.4 kcal/mol
Cc1ccnc2c1NC(=O)c1cccnc1N2C1CC1 [nevirapine],EC50,[9],110 nM
Nc1noc(C2CN3CCC2C3)n1 (stereo not shown) [oxadiazole],EC50,[9],inactive
Ac-Ser-Leu-Asn-(Phe-Hea-Pro)-Ile-Val-OMe [JG-365],"ΔΔGbind (experimental), heptapeptide → hexapeptide",HIV-1 protease [10]; from Ki values for an equilibrium mixture of R and S configurations,3.8 ± 1.3 kcal/mol
same,"ΔΔGbind (calculated), heptapeptide → hexapeptide (deletion of valine)","HIV-1 protease [11]; FEP/MD, averaged for R and S",3.3 ± 1.1 kcal/mol
Ac-Thr-Ile-Nle-ψ [CH2-NH]-Nle-Gln-Arg-NH2 [MVT-101],"decrease of binding, single Nle to Met mutation",HIV-1 protease [11],0.7 kcal/mol
Ala-Ala-Phe[CH(OH)CH2]Gly-Val-Val-OMe [HEI],"ΔΔGbind (experimental), central hydroxyl S to R",HIV-1 protease [10],2.6 kcal/mol
same,"ΔΔGbind (computed), central hydroxyl S to R",HIV-1 protease [11]; FEP/MD,3.37 ± 0.64 kcal/mol
same,"predicted enhancement of binding, Gly to Nle mutation",HIV-1 protease [11],1.7 kcal/mol
